Data from patent publication US20250034151A1, “WEE1 INHIBITOR, PREPARATION THEREFOR, AND USE THEREOF” (JIANGSU TASLY DIYI PHARMACEUTICAL CO., LTD., priority 2022, published 2025).

Target: T1, CYP2B6 (Homo sapiens, UniProt P20813)
T1 sequence (P20813 1-491): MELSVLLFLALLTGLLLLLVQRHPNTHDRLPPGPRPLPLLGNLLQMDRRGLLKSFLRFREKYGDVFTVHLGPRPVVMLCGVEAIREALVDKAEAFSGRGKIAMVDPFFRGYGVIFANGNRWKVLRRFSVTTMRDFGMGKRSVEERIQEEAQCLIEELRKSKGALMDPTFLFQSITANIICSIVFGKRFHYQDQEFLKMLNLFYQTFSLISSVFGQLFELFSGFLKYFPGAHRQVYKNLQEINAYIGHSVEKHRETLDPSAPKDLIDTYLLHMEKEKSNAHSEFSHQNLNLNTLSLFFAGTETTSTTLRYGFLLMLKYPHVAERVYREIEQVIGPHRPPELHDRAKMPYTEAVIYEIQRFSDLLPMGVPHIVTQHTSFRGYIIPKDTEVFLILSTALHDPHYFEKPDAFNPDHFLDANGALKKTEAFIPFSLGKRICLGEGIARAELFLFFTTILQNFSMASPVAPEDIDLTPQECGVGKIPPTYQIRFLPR
Experiment: CYP450 isoform enzymatic inhibition, 2B6
Assay type: in vitro ADME
Conditions: pH 7.4, read-out: CYP inhibiton/% 2B6
Method: Enzymatic experiments were performed to quantify the inhibition of CYP450 enzyme activity of each isoform of CYP450 by small molecule inhibitors through fluorescence generated by the oxidation of the The substrate by cytochrome P450. […] The Solution B composition used for the experiment was: 40 U/mL G6PDH (Sigma-aldrich, Cat #G6378). The The substrate mix was 0.05×Solution A, 0.01×Solution B, 50 mM Potassium Phosphate, 0.01 mM BOMCC/0.01 mM EOMCC/0.001 mM DBOMF.

Work on `C=CCn1c(=O)c2cnc(Nc3ccc(N4C[C@@H]5C[C@H]4CN5C)cc3)nc2n1-c1cccc(C(C)(C)O)n1` [Compound 3] yielded an inhibition at 30 min, 10 µM of 1.38%.
